Measured values from patent US12655169B2, “Arabinose and preparation and use thereof” (THOMSON BIOTECH (XIAMEN) PTE. LTD., priority 2022, dated 2026).
Read-outs that look alike come from different tables or passages of the source.

Experiments:
Type in all cases: physicochemical
[1] = Particle size parameter test (BT-2900 image particle size analysis system); conditions: quantity distribution, image particle size analysis
Description: (§1) Example 4. Particle Size Parameters and Powder Characteristics (Quantity Distribution) of L-Arabinose

[2] = Flowability test (particle and powder characteristic analyzer, FT-102D)
Description: as §1
Example 13. Performance Test Results for the Granules of the Present Disclosure

[3] = Granularity distribution of sample (standard sieve); conditions: for Granularity distribution of sample (standard sieve) 20-80 mesh / Granularity distribution of sample (standard sieve) <80 mesh / Granularity distribution of sample (standard sieve) >20 mesh: Example 8 samples, seed crystal specification and fed-batch time varied
Method: 1 kg of L-arabinose starting material was dissolved in 1.2 kg of purified water at 60° C. After the solution was completely clear, 1 g of activated carbon ([…] of the L-arabinose) was added. The mixture was incubated at 60° C. for 30 min and then subjected to suction filtration under vacuum successively through 25 μm and 0.45 μm filter membranes to remove the activated carbon, and a clear filtered sugar liquid (about 1800 mL in volume) was obtained. About 800 mL of the clear filtered sugar liquid was added to a three-necked flask, and stirred and evaporated under reduced pressure in a water bath set at a temperature of 62° C. until the sugar degree reached 58-60% Brix. A proper amount of L-arabinose was added as seed crystals (as shown in Table 8-1 below, seed crystal with different specifications was selected: 40-60 mesh, 16.5 g; 60-80 mesh, 6 g; 80-100 mesh, 1.5 g). The mixture was stirred (double-layered type of stirring, with two-half-crescent type for the lower layer and three-bladed propeller type for the upper layer) at a rate of 90-110 rpm until the seed crystal was completely dispersed. Then the sugar liquid was added at a rate of 50-100 mL/h in a fed-batch manner for a time period of 12/18 h. After the fed-batch addition was completed, the concentrating was continued for 1-2 h. It was about 14 h from the time the seed crystal was added to the time of discharging.
According to the results shown in Table 8-1, the specific surface area of the seed crystal of 80-100 mesh is relatively […] compared with that of the seed crystal of other specifications (as shown in Table 8-2), but the particle size distribution of the sample obtained by experiment is relatively uniform: the proportion of 20-80 mesh is more than 89.7%, and the maximum proportion is more than 90%, which fully complies with the requirements of the existing pharmacopoeia (Chinese pharmacopoeia (2020)) for granules: granules cannot pass through a No. 1 sieve (10 mesh, 2000 μm) and the total quantity of granules which can pass through a No. 5 sieve (80 mesh, pore size of […]) should not exceed 15%.

[4] = listed as Example 10 sample of batch 1ª
[5] = post-centrifugation sampling-manual material spreading and drying oven drying

Average particle size [1] [μm] | D10 [1] [μm] | D50 [1] [μm] | D90 [1] [μm] | Bulk density [2] | Carr flowability index [2] | Compressibility [2] | Floodability index [2] | Flowability (Hausner ratio) [2] | Hausner ratio [2] | Tap density [2] | Angle of repose [2] | 20-80 mesh proportion of sample [3, 5] [%] | SMILES | also measured
182 | 78 | 174 | 296 |  |  |  |  |  |  |  |  |  | O=C[C@H](O)[C@@H](O)[C@@H](O)CO [Example 10 Sample of batch 1^b, L-arabinose] | 
185.5 | 175.1 | 305.2 | 481.8 | 0.48 | 99 | 24.4 | 75.0 | Good | 1.3 | 0.64 | 39.74 | 93.57 | O=C[C@H](O)[C@@H](O)[C@@H](O)CO [Example 12, L-arabinose] | 
189 | 82 | 182 | 299 | 0.6 | 102.5 | 20.6 | 75.0 | Good | 1.3 | 0.76 | 38.95 |  | O=C[C@H](O)[C@@H](O)[C@@H](O)CO [Example 2, L-arabinose] | Granularity distribution of sample (standard sieve) 20-80 mesh [3]: 61; Granularity distribution of sample (standard sieve) <80 mesh [3]: 1; Granularity distribution of sample (standard sieve) >20 mesh [3]: 38
189 | 79 | 168 | 331 |  |  |  |  |  |  |  |  |  | O=C[C@H](O)[C@@H](O)[C@@H](O)CO [Example 10 Sample of batch 2^b, L-arabinose] | 
 |  |  |  |  |  |  |  |  |  |  |  | 94.3 | O=C[C@H](O)[C@@H](O)[C@@H](O)CO [Example 14, L-arabinose] | 20-80 mesh proportion of sample ([3]; star valve unloading-back-mixing bed drying): 89%

Second part, the compound before the results:

SMILES | Average particle size [1] [μm] | D10 [1] [μm] | D50 [1] [μm] | D90 [1] [μm] | Bulk density [2] | Carr flowability index [2] | Compressibility [2] | Floodability index [2] | Flowability (Hausner ratio) [2] | Hausner ratio [2] | Tap density [2] | Angle of repose [2] | 20-80 mesh proportion of sample [3, 5] [%] | also measured
O[C@@H]1[C@@H](O)[C@@H](O)CO[C@H]1O [Commercial product (T1)] | 75 | 27 | 63 | 137 | 0.55 g/mL | 79 | 40.2% | 75 | Very poor | 1.7 | 0.93 g/mL |  |  | Angle of repose ([2]; in ° (unit assumed)): 51.05
O[C@@H]1[C@@H](O)[C@@H](O)CO[C@H]1O [No. 5] |  |  |  |  |  |  |  |  |  |  |  |  |  | Granularity distribution of sample (standard sieve) 20-80 mesh [3]: 89.7%; Granularity distribution of sample (standard sieve) <80 mesh [3]: 3%; Granularity distribution of sample (standard sieve) >20 mesh [3]: 7.3%
O=C[C@H](O)[C@@H](O)[C@@H](O)CO [Example 10 batch 1, L-arabinose] |  |  |  |  | 0.7 |  | 17.1 | 75.0 | Good | 1.2 | 0.85 | 40.01 | 93.0 | Average particle size [1, 4]: 134.5 μm; D10 [1, 4]: 48.4 μm; D50 [1, 4]: 125.1 μm; D90 [1, 4]: 230.6 μm; 20-80 mesh proportion of sample ([3]; screw feeding-back-mixing bed drying): 66.4%
O=C[C@H](O)[C@@H](O)[C@@H](O)CO [Example 11, L-arabinose] | 148.8 | 164.8 | 288.1 | 448.8 | 0.5 | 102.0 | 23.1 | 75.0 | Acceptable | 1.3 | 0.65 | 34.29 | 90.6 | 
O[C@@H]1[C@@H](O)[C@@H](O)CO[C@H]1O [Commercial product (Y1)] | 33 | 11 | 30 | 63 | 0.5 g/mL | 79 | 41.4% | 75 | Very poor | 1.7 | 0.85 g/mL |  |  | Angle of repose ([2]; in ° (unit assumed)): 51.73
